Residue numbers refer to the chain shown, from its start. Where “and” joins values, the source holds several entries; their conditions need not be identical. Equal values may be shown once.
Legend:
Format in all cases: cell-based
hTA1 R83H = molecular target: T1, hTA1 R83H (Homo sapiens, UniProt Q96RJ0, R83H); assay: GloSensor cAMP accumulation assay, R83H mutant;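 further: cells transiently co-expressing hTA1 and a cAMP GloSensor, luminescence read 30 min after agonist addition at room temperature, concentration–response fitted by non-linear regression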
T1 construct: expressed in transfected cells; host or cells: HEK293T
T1 sequence (Q96RJ0 1-339 R83H): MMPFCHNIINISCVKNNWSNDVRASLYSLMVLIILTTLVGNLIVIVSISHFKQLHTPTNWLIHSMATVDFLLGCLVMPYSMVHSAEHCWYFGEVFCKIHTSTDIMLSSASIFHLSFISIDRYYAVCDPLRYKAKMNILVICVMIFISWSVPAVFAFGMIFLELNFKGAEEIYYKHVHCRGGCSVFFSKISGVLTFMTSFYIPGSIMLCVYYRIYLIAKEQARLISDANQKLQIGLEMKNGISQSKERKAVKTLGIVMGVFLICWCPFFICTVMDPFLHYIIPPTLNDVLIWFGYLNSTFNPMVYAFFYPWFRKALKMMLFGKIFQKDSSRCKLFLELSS

hTA1 V184P = molecular target: T2, hTA1 V184P (Homo sapiens, UniProt Q96RJ0, V184P); assay: GloSensor cAMP accumulation assay, V184P mutant; conditions: for cAMP accumulation response, single replicate values (source data, Supplementary Figure 5): hTA1 V184P (N=2), log[Compound]
T2 construct: expressed in transfected cells; host or cells: HEK293T
T2 sequence (Q96RJ0 1-339 V184P): T1 sequence (Q96RJ0 1-339 R83H) with H83R, V184P

hTA1 T271N = molecular target: T3, hTA1 T271N (Homo sapiens, UniProt Q96RJ0, T271N); assay: GloSensor cAMP accumulation assay, T271N mutant; conditions: for Normalized Luminescence Counts for Concentration Response Curves: log[Agonist], single replicates
T3 construct: expressed in transfected cells; host or cells: HEK293T
T3 sequence (Q96RJ0 1-339 T271N): T1 sequence (Q96RJ0 1-339 R83H) with H83R, T271N

hTA1 C5S = molecular target: T4, hTA1 C5S (Homo sapiens, UniProt Q96RJ0, C5S); assay: GloSensor cAMP accumulation assay, C5S mutant; conditions: for C5S - Normalized Luminescence Counts (N=2): log[Compound], single wells
T4 construct: expressed in transfected cells; host or cells: HEK293T
T4 sequence (Q96RJ0 1-339 C5S): T1 sequence (Q96RJ0 1-339 R83H) with C5S, H83R

hTA1 = molecular target: T5, hTA1 (Homo sapiens, UniProt Q96RJ0); assay: Screen of 89 aminergic compounds at 10 µM, cAMP accumulation in HEK293T cells; conditions: 10 µM of compound; HEK293T; threshold log2-fold change of 2;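 further: HEK293T cells co-transfected with hTA1 and GloSensor cAMP reporter, cAMP accumulation detected by luminescence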
T5 construct: expressed in transfected cells; host or cells: HEK293T
T5 sequence (Q96RJ0 1-339): T1 sequence (Q96RJ0 1-339 R83H) with H83R

[1] = hTA1 V184P mutant minus WT average

Compound: NCCc1ccccc1 [β-PEA, β-phenethylamine]
- ΔEmax values (each mutant value - WT average) (hTA1 R83H; R83H mutant minus WT average): 0
- ΔpEC50 values (each mutant value - WT average) (hTA1 R83H; R83H mutant minus WT average): -1.391 and -1.424
- pEC50 values, Mean (hTA1 R83H; R83H mutant, each line an independent experiment, 3 replicates): 5.702 and 5.67
- Emax values, Mean (hTA1 R83H; R83H mutant, β-PEA = 100, each line an independent experiment, 3 replicates): 100
- Span ± SEM (Emax normalized to β-PEA) (hTA1 R83H; R83H, n=2): 100 ± 5.46
- pEC50 ± SEM (hTA1 R83H; R83H, n=2): 5.69 ± 0.07
- EC50 (hTA1 R83H; R83H, n=2, read-out: EC50): 2060 nM
- reduction in potency vs wild type (hTA1 V184P; V184P): 3 fold
- Span ± SEM (Emax normalized to β-PEA) (hTA1 V184P; V184P, n=2): 100 ± 1.96
- pEC50 ± SEM (hTA1 V184P; V184P, n=2): 6.49 ± 0.04
- EC50 (hTA1 V184P; V184P, n=2, read-out: EC50): 321 nM
- cAMP accumulation response, single replicate values (source data, Supplementary Figure 5) (hTA1 V184P; M = -5): 83.3536 and 92.5674 and 99.6475 and 104.399 and 96.8854 and 100.441
- cAMP accumulation response, single replicate values (source data, Supplementary Figure 5) (hTA1 V184P; M = -5.522): 95.962 and 88.397 and 84.7115 and 96.8487 and 73.2445 and 97.875
- cAMP accumulation response, single replicate values (source data, Supplementary Figure 5) (hTA1 V184P; M = -6): 78.5043 and 69.7754 and 70.1634 and 94.7595 and 71.9984 and 76.7632
- cAMP accumulation response, single replicate values (source data, Supplementary Figure 5) (hTA1 V184P; M = -6.522): 42.813 and 37.5757 and 33.5992 and 65.1077 and 56.2745 and 55.2115
- cAMP accumulation response, single replicate values (source data, Supplementary Figure 5) (hTA1 V184P; M = -7): 14.3957 and 16.7234 and 14.2987 and 30.7277 and 25.9995 and 32.4504
- cAMP accumulation response, single replicate values (source data, Supplementary Figure 5) (hTA1 V184P; M = -7.522): 8.4795 and 4.503 and 3.727 and 12.5114 and 6.1339 and 9.909
- cAMP accumulation response, single replicate values (source data, Supplementary Figure 5) (hTA1 V184P; M = -8): 2.078 and 0.1386 and 0.7205 and 5.731 and 6.5 and 4.265
- cAMP accumulation response, single replicate values (source data, Supplementary Figure 5) (hTA1 V184P; M = -8.522): 1.496 and -0.05538 and 0.3326 and 2.249 and 1.809 and 2.505
- cAMP accumulation response, single replicate values (source data, Supplementary Figure 5) (hTA1 V184P; M = -9): 1.011 and 0.1386 (2×) and 2.652 and -0.3902 and 1.626
- cAMP accumulation response, single replicate values (source data, Supplementary Figure 5) (hTA1 V184P; M = -9.522): 0.7205 and -0.2494 and 0.4296 and -0.02371 and -1.123 and -0.1703
- cAMP accumulation response, single replicate values (source data, Supplementary Figure 5) (hTA1 V184P; M = -10): 1.205 and -0.05538 and 0.3326 and -0.207 and -0.5002 and 0.4161
- cAMP accumulation response, single replicate values (source data, Supplementary Figure 5) (hTA1 V184P; M = -10.522): 0.8175 and 0.6235 and -0.1524 and -0.3169 and -1.27 and -0.6101
- cAMP accumulation response, single replicate values (source data, Supplementary Figure 5) (hTA1 V184P; M = -11): 0.04161 and -0.4433 and -0.1524 and 0.5261 and 0.1229 and -0.4269
- cAMP accumulation response, single replicate values (source data, Supplementary Figure 5) (hTA1 V184P; M = -11.522): 1.205 and 0.1386 and 0.2356 and 0.7826 and 0.5261 and 0.3062
- cAMP accumulation response, single replicate values (source data, Supplementary Figure 5) (hTA1 V184P; M = -12): 0.8175 (3×) and -0.3902 and -0.5735 and 0.0496
- cAMP accumulation response, single replicate values (source data, Supplementary Figure 5) (hTA1 V184P; M = -12.522): 2.175 and 1.496 and 1.205 and 0.08625 and 0.1962 and -0.7201
- ΔEmax values (each mutant value - WT average), Mean (hTA1 V184P; [1]): 0
- ΔpEC50 values (each mutant value - WT average), Mean (hTA1 V184P; [1]): -0.7478 and -0.4527
- pEC50 values, Mean (hTA1 V184P; hTA1 V184P mutant, Figure 3B source data, each grid row a separate experiment, 3 replicates): 6.346 and 6.641
- Emax values, Mean (hTA1 V184P; hTA1 V184P mutant, β-PEA set to 100, each grid row a separate experiment, 3 replicates): 100
- pEC50 values, Mean (hTA1 T271N; T271N mutant, Figure 5B, each row one independent experiment (3 replicates)): 6.643 and 6.211
- Emax values, Mean (hTA1 T271N; T271N mutant, Figure 5B, β-PEA = 100, each row one independent experiment (3 replicates)): 100
- Normalized Luminescence Counts for Concentration Response Curves (hTA1 T271N; T271N, M -7): 26.2249 and 22.04 and 25.7454 and 13.723 and 18.7522 and 17.914
- Normalized Luminescence Counts for Concentration Response Curves (hTA1 T271N; T271N, M -7.522): 13.7138 and 6.913 and 9.921 and 7.175 and 4.66 and 5.236
- Normalized Luminescence Counts for Concentration Response Curves (hTA1 T271N; T271N, M -8): 4.385 and 5.17 and 5.257 and 2.984 (2×) and 1.569
- Normalized Luminescence Counts for Concentration Response Curves (hTA1 T271N; T271N, M -8.522): 2.467 and 1.9 and 1.508 and 0.2596 and -0.631 and 0.5215
- Normalized Luminescence Counts for Concentration Response Curves (hTA1 T271N; T271N, M -9): 0.4181 and 0.5052 and 1.246 and -0.2643
- Span ± SEM (Emax normalized to β-PEA) (hTA1 T271N; T271N, n=2): 100 ± 3.3
- pEC50 ± SEM (hTA1 T271N; T271N, n=2): 6.43 ± 0.06
- EC50 (hTA1 T271N; T271N, n=2, read-out: EC50): 374 nM
- Span ± SEM (Emax normalized to β-PEA) (hTA1 C5S; C5S, n=2): 100 ± 2.22
- pEC50 ± SEM (hTA1 C5S; C5S, n=2): 7.04 ± 0.05
- EC50 (hTA1 C5S; C5S, n=2, read-out: EC50): 90.7 nM
- ΔEmax values (each mutant value - WT average), Mean (hTA1 C5S; hTA1 C5S minus WT average): 0
- ΔpEC50 values (each mutant value - WT average), Mean (hTA1 C5S; hTA1 C5S minus WT average): 0.0587 and -0.1606
- pEC50 values, Mean (hTA1 C5S; hTA1 C5S, mean of 3 replicates, one line per independent experiment): 7.152 and 6.9329
- Emax values, Mean (hTA1 C5S; hTA1 C5S, β-PEA = 100, mean of 3 replicates, one line per independent experiment): 100
- C5S - Normalized Luminescence Counts (N=2) (hTA1 C5S; M = -5): 105.865 and 101.779 and 112.458 and 98.7643 and 96.9001 and 118.028
- C5S - Normalized Luminescence Counts (N=2) (hTA1 C5S; M = -5.522): 88.1188 and 112.932 and 94.5762 and 114.438 and 73.9771 and 93.1716
- C5S - Normalized Luminescence Counts (N=2) (hTA1 C5S; M = -6): 83.9419 and 90.8734 and 98.6952 and 79.8459 and 79.6388
- C5S - Normalized Luminescence Counts (N=2) (hTA1 C5S; M = -6.522): 76.5362 and 74.7073 and 70.3723 and 75.427 and 66.8654 and 70.3867
- C5S - Normalized Luminescence Counts (N=2) (hTA1 C5S; M = -7): 61.9506 and 59.2638 and 58.7445 and 43.9424 and 45.3233 and 47.3256
- C5S - Normalized Luminescence Counts (N=2) (hTA1 C5S; M = -8.522): 3.721 and 3.676 and 4.421 and 4.379 and 2.308 and 3.965
- increase of signal over DMSO-treated controls (hTA1 activation) (hTA1): ≥ 4 fold

Source: paper PMC10762035, “Molecular basis of human trace amine-associated receptor 1 activation” (Nature Communications, 2024)
